Test results published in US20080194482A1, “Selective Apac2 Receptor Peptide Agonists” (priority 2005, published 2008).
Square brackets hold non-standard residues; d marks the D form. Peptide text beside a SMILES is read from it. * marks the point of attachment. Orn = NCCC[C@H](N)C(=O)O; Hexanoyl = CCCCCC(=O)*; Aib = CC(C)(N)C(=O)O

What was measured:
human VPAC1 = target: T1, human VPAC1 (Homo sapiens, UniProt P32241); assay: Filter binding assay, 125I-labeled VIP tracer, VPAC1 membranes; details: read-out: Human VPAC1 Receptor Binding (IC50; nM)
T1 construct: expressed in transfected cells
T1 sequence (P32241 31-457): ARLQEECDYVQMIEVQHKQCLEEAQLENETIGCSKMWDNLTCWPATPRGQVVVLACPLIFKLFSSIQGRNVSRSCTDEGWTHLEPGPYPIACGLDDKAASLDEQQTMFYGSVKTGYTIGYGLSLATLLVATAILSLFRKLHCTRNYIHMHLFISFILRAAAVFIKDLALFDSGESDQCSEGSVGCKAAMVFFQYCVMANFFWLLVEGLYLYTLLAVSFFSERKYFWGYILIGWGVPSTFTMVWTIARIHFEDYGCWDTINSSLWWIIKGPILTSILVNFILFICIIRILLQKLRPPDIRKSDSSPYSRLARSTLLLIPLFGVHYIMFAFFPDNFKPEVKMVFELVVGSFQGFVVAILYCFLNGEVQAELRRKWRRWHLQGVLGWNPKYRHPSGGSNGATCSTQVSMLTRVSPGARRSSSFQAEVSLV
Method: (§1) For this assay, the solutions and equipment include:
(§2) Presoak solution: 0.5% Polyethyleneamine in Aqua dest
(§3) Buffer for flushing filter plates: 25 mM HEPES pH 7.4
(§4) Blocking buffer: 25 mM HEPES pH 7.4; 0.2% protease free BSA
(§5) Assay buffer: 25 mM HEPES pH 7.4; 0.5% protease free BSA
(§6) Dilution and assay plate: PS-Microplate, U form
(§7) Filtration Plate: Multiscreen FB Opaque Plate; 1.0 μM Type B Glasfiber filter
(§8) In order to prepare the filter plates, the presoak solution is aspirated by vacuum filtration. The plates are flushed twice with 200 μL flush buffer. 200 μL blocking buffer is added to the filter plate. The filter plate is then incubated with 200 μL presoak solution for 1 hour at room temperature.
(§9) The assay plate is filled with 25 μL assay buffer, 25 μL membranes (2.5 μg) suspended in assay buffer, 25 μL compound (agonist) in assay buffer, and 25 μL tracer (about 40000 cpm) in assay buffer. The filled plate is incubated for 1 hour with shaking.
(§10) The transfer from assay plate to filter plate is conducted. The blocking buffer is aspirated by vacuum filtration and washed two times with flush buffer. 90 μL is transferred from the assay plate to the filter plate. The 90 μL transferred from assay plate is aspirated and washed three times with 200 μL flush buffer. The plastic support is removed. It is dried for 1 hour at 60° C. 30 μL Microscint is added. The count is performed.

human PAC1 = target: T2, human PAC1 (Homo sapiens, UniProt P41586); assay: Filter binding assay, 125I-labeled PACAP-27 tracer, PAC1 membranes; details: read-out: Human PAC1 Receptor Binding (IC50; nM)
T2 construct: expressed in transfected cells
T2 sequence (P41586 21-468): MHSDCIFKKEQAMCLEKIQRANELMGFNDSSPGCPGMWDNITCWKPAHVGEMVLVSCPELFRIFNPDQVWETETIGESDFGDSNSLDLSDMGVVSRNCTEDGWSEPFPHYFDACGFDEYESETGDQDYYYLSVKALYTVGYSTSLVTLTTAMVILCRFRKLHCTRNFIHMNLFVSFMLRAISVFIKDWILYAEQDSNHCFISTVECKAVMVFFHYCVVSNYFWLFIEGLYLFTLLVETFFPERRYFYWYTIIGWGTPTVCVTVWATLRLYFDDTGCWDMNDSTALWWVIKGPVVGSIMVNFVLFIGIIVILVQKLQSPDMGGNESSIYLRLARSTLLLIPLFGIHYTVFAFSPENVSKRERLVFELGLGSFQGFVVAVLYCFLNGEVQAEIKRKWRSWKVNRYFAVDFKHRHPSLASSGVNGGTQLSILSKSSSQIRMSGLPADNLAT
Method: as §1, §2, §3, §4, §5, §6, §7, §8, §9, §10

[1] = Rat serum stability (activity remaining, CHO-VPAC2 DiscoveRx read-out); assay type: in vitro ADME
Method: The rat serum is stored at 4° C. until use and is used within two weeks. […] The aliquot is stored with aprotinin at 4° C. The aliquot is stored without aprotinin at 37° C. The aliquots are incubated overnight. […] The plate(s) are washed with cells twice in incubation buffer. The plates are allowed to hold 50 μL incubation media per well for 15 minutes. 50 μL solution per well is transferred to the cells from the plate prepared with 11 serial 5× dilutions of peptide for the 4° C. and 37° C. aliquot for each peptide studied, using the maximal concentrations that are indicated by the primary screen, in duplicate. This step dilutes the peptide concentration by a factor of two. The cells are incubated at room temperature for 30 minutes. […] The cells are incubated on the shaker (300 rpm) for 1 hour. Normal procedure with the DiscoveRx kit is followed. cAMP standards are included in column 12. EC50 values are determined from the cAMP assay data.

CCCCCC(=O)N[C@@H](Cc1c[nH]cn1)C(=O)N[C@@H](CO)C(=O)N[C@@H](CC(=O)O)C(=O)N[C@@H](C)C(=O)N[C@H](C(=O)N[C@@H](Cc1ccccc1)C(=O)N[C@H](C(=O)N[C@@H](CC(=O)O)C(=O)N[C@@H](CC(N)=O)C(=O)N[C@@H](Cc1ccc(O)cc1)C(=O)N[C@H](C(=O)N[C@@H](CCCN)C(=O)N[C@@H](CC(C)C)C(=O)N[C@@H](CCCNC(=N)N)C(=O)NC(C)(C)C(=O)N[C@@H](CCC(N)=O)C(=O)N[C@H](C(=O)N[C@@H](C)C(=O)N[C@@H](CO)C(=O)NC(C)(C)C(=O)N[C@@H](CCCCN)C(=O)N[C@@H](Cc1ccc(O)cc1)C(=O)N[C@@H](CC(C)C)C(=O)N[C@@H](CCC(N)=O)C(=O)N[C@@H](CO)C(=O)N[C@H](C(=O)N[C@@H](CCCN)C(=O)N[C@@H](CC(N)=O)C(=O)N[C@@H](CCCN)C(=O)NCC(=O)NCC(=O)N1CCC[C@H]1C(=O)N[C@@H](CO)C(=O)N[C@@H](CO)C(=O)NCC(=O)N[C@@H](C)C(=O)N1CCC[C@H]1C(=O)N1CCC[C@H]1C(=O)N1CCC[C@H]1C(=O)N[C@@H](CO)C(=O)O)[C@@H](C)CC)C(C)C)[C@@H](C)O)[C@@H](C)O)C(C)C [Agonist P387] (Hexanoyl-HSDAVFTDNYT[Orn]LR[Aib]QVAS[Aib]KYLQSI[Orn]N[Orn]GGPSSGAPPPS-OH; C-terminus assumed)
IC50 (human VPAC1): > 3000 nM
IC50 (human PAC1): > 25000 nM
Rat Serum Stability (estimated purity in % after overnight incub.) [1]: 74.99%

CCCCCC(=O)N[C@@H](Cc1c[nH]cn1)C(=O)N[C@@H](CO)C(=O)N[C@@H](CC(=O)O)C(=O)N[C@@H](C)C(=O)N[C@H](C(=O)N[C@@H](Cc1ccccc1)C(=O)N[C@H](C(=O)N[C@@H](CC(=O)O)C(=O)N[C@@H](CC(N)=O)C(=O)N[C@@H](Cc1ccc(O)cc1)C(=O)N[C@H](C(=O)N[C@@H](Cc1ccccc1)C(=O)N[C@@H](CC(C)C)C(=O)N[C@@H](CCCNC(=N)N)C(=O)NC(C)(C)C(=O)N[C@@H](CCC(N)=O)C(=O)N[C@H](C(=O)N[C@@H](C)C(=O)N[C@@H](C)C(=O)NC(C)(C)C(=O)N[C@@H](CCCCN)C(=O)N[C@@H](Cc1ccc(O)cc1)C(=O)N[C@@H](CC(C)C)C(=O)N[C@@H](CCC(N)=O)C(=O)N[C@@H](CO)C(=O)N[C@H](C(=O)N[C@@H](CCCN)C(=O)N[C@@H](CC(N)=O)C(=O)N[C@@H](CCCN)C(=O)NCC(=O)NCC(=O)N1CCC[C@H]1C(=O)N[C@@H](CO)C(=O)N[C@@H](CO)C(=O)NCC(=O)N[C@@H](C)C(=O)N1CCC[C@H]1C(=O)N1CCC[C@H]1C(=O)N1CCC[C@H]1C(=O)N[C@@H](CO)C(=O)O)[C@@H](C)CC)C(C)C)[C@@H](C)O)[C@@H](C)O)C(C)C [Agonist P369] (Hexanoyl-HSDAVFTDNYTFLR[Aib]QVAA[Aib]KYLQSI[Orn]N[Orn]GGPSSGAPPPS-OH; C-terminus assumed)
IC50 (human VPAC1): > 3000 nM
IC50 (human PAC1): > 25000 nM
Rat Serum Stability (estimated purity in % after overnight incub.) [1]: 133.76%

CCCCCC(=O)N[C@@H](Cc1c[nH]cn1)C(=O)N[C@@H](CO)C(=O)N[C@@H](CC(=O)O)C(=O)N[C@@H](C)C(=O)N[C@H](C(=O)N[C@@H](Cc1ccccc1)C(=O)N[C@H](C(=O)N[C@@H](CC(=O)O)C(=O)N[C@@H](CC(N)=O)C(=O)N[C@@H](Cc1ccc(O)cc1)C(=O)N[C@H](C(=O)N[C@@H](CCC(N)=O)C(=O)N[C@@H](CC(C)C)C(=O)N[C@@H](CCCNC(=N)N)C(=O)NC(C)(C)C(=O)N[C@@H](CCC(N)=O)C(=O)N[C@H](C(=O)N[C@@H](C)C(=O)N[C@@H](C)C(=O)NC(C)(C)C(=O)N[C@@H](CCCCN)C(=O)N[C@@H](Cc1ccc(O)cc1)C(=O)N[C@@H](CC(C)C)C(=O)N[C@@H](CCC(N)=O)C(=O)N[C@@H](CO)C(=O)N[C@H](C(=O)N[C@@H](CCCN)C(=O)N[C@@H](CC(N)=O)C(=O)N[C@@H](CCCN)C(=O)NCC(=O)NCC(=O)N1CCC[C@H]1C(=O)N[C@@H](CO)C(=O)N[C@@H](CO)C(=O)NCC(=O)N[C@@H](C)C(=O)N1CCC[C@H]1C(=O)N1CCC[C@H]1C(=O)N1CCC[C@H]1C(=O)N[C@@H](CO)C(=O)O)[C@@H](C)CC)C(C)C)[C@@H](C)O)[C@@H](C)O)C(C)C [Agonist P368] (Hexanoyl-HSDAVFTDNYTQLR[Aib]QVAA[Aib]KYLQSI[Orn]N[Orn]GGPSSGAPPPS-OH; C-terminus assumed)
IC50 (human VPAC1): > 3000 nM
IC50 (human PAC1): > 25000 nM
Rat Serum Stability (estimated purity in % after overnight incub.) [1]: 99.82%
